Data as given in patent US20260193236A1 (Protego Biopharma, Inc., priority 2022, published 2026).
Where a name gives a salt, the structure may show the parent alone.

What follows are compounds tested on IRE1-XBP1s (XBP1-RLuc splicing reporter in HEK293 T-REx cells) (assay: IRE1-XBP1s activation assay (XBP1-RLuc splicing reporter, HEK293 T-REx cells, luminescence relative to thapsigargin)). Conditions: 18 h, compound 10 μM, HEK293 T-REx XBP1-RLuc reporter cells, relative to thapsigargin (Tg) 500 nM, read-out: Activity (IRE1-XBP1s activation, luminescence as % signal relative to thapsigargin, % Tg).
Assay type: cell-based
Method: IRE1-XBP1s activation Assay: HEK293 T-REx cells stably expressing the XBP1-RLuc splicing reporter were treated with an IRE1-XBP1s activator provided herein (10 μM) in the presence or absence of the IRE1 active site inhibitor 4μ8C (32 μM) for 18 h. Luminescence was shown as the percentage signal relative to thapsigargin (Tg) (500 nM, 18 h).

| SMILES | activation at 10 µM |
| --- | --- |
| Cc1ccc(OCCN(C)C(=O)Cn2cc(NC(=O)[C@H](CNc3ccc(F)nc3C)C(C)C)cn2)cc1 [Compound 172] | 30 to 50% |
| CCc1nccnc1NCCC(=O)Nc1cnn(CC(=O)N(C)CCOc2ccc(C)cc2)c1 [Compound 142] | 30 to 50% |
| COc1ccc(OCCN(C)C(=O)Cn2cc(NC(=O)CCOc3ccc(C)cc3F)cn2)cc1 [Compound 77] | < 30% |
| Cc1ccc(OCCC(=O)Nc2cnn(CC(=O)N(C)CCOc3ccc(C)c(C(F)(F)F)c3)c2)c(F)c1 [Compound 79] | < 30% |
| COc1ccc(OCCN(C)C(=O)Cn2cc(NC(=O)CCNc3cc(C)ncc3C)cn2)cc1 [Compound 168] | 30 to 50% |
| COc1ccccc1OCCC(=O)Nc1cnn(CC(=O)N(C)CCOc2ccc(C)cc2)c1 [Compound 28] | > 50% |
| Cc1ccc(OCCN(C)C(=O)Cn2cc(NC(=O)CCNc3ccc(Cl)nc3)cn2)cc1 [Compound 178] | 30 to 50% |
| CN(CCOc1ccc(C(F)(F)F)cn1)C(=O)Cn1cc(NC(=O)CCNc2ccnc(O)n2)cn1 [Compound 265] | < 30% |
| Cc1ccc(OCCN(C)C(=O)Cn2cc(NC(=O)CCNC(=O)c3ncc(F)cn3)cn2)cc1 [Compound 248, 5-Fluoro-N-[3-[[1-[2-[methyl-[2-(4-methylphenoxy)ethyl]amino]-2-oxo-ethyl]pyrazol-4-yl]amino]-3-oxo-propyl]pyrimidine-2-carboxamide] | < 30% |
| COc1cc(NS(=O)(=O)CC(=O)Nc2cnn(CC(=O)N(C)CCOc3ccc(C)cc3)c2)ccn1 [Compound 285, 2-(4-(2-(N-(2-methoxypyridin-4-yl)sulfamoyl)acetamido)-1H-pyrazol-1-yl)-N-methyl-N-(2-(p-tolyloxy)ethyl)acetamide] | < 30% |
| Cc1ccc(OCCN(C)C(=O)Cn2cc(NC(=O)CCOc3cccnc3C)cn2)cc1 [Compound 13] | 30 to 50% |
| Cc1ccc(OCCN(C)C(=O)Cn2cc(NC(=O)COc3ccc4ccccc4n3)cn2)cc1 [Compound 288] | < 30% |
| Cc1ccc(OCCN(C)C(=O)Cn2cc(NC(=O)COc3c(F)cncc3C(C)C)cn2)cc1 [Compound 274, 2-(4-(2-((3-fluoro-5-isopropylpyridin-4-yl)oxy)acetamido)-1H-pyrazol-1-yl)-N-methyl-N-(2-(p-tolyloxy)ethyl)acetamide] | < 30% |
| COC(=O)Nc1cc(OCCC(=O)Nc2cnn(CC(=O)N(C)CCOc3ccc(C)cc3)c2)ccn1 [Compound 262] | 30 to 50% |
| Cc1ccc(OCCN(C)C(=O)Cn2cc(NC(=O)CCNc3ccc(C)cn3)cn2)cc1 [Compound 126] | < 30% |
| Cc1ccc(OCCN(C)C(=O)Cn2cc(NC(=O)CCNc3ccnc(C)c3)cn2)cc1 [Compound 164, N-(1-(2-(methyl(2-(p-tolyloxy)ethyl)amino)-2-oxoethyl)-1H-pyrazol-4-yl)-3-((2-methylpyridin-4-yl)amino)propanamide] | 30 to 50% |
| Cc1ncc(OCCN(C)C(=O)Cn2cc(NC(=O)CCNc3ccc(F)nc3C)cn2)cn1 [Compound 241] | < 30% |
| Cc1ccc(OCCC(=O)Nc2cnn(CC(=O)N(C)CCOc3ccc(F)c(Cl)c3)c2)c(F)c1 [Compound 72] | < 30% |
| Cc1ccc(OCCN(C)C(=O)Cn2cc(NC(=O)CCOc3ccnc(NC(=O)OC(C)(C)C)c3)cn2)cc1 [Compound 101] | > 50% |
| Cc1ccc(OCCN(C)C(=O)Cn2cc(NC(=O)CC(C)(C)Nc3ccnc(F)n3)cn2)cc1 [Compound 217, 3-((2-fluoropyrimidin-4-yl)amino)-3-methyl-N-(1-(2-(methyl(2-(p-tolyloxy)ethyl)amino)-2-oxoethyl)-1H-pyrazol-4-yl)butanamide] | < 30% |

| SMILES | activation at 10 µM |
| --- | --- |
| COc1cc(OCCN(C)C(=O)Cn2cc(NC(=O)CCNc3ncccn3)cn2)ccc1C [Compound 283] | < 30% |
| Cc1cnc(OCCN(C)C(=O)Cn2cc(NC(=O)CCNc3ccc(F)nc3C)cn2)nc1 [Compound 244] | < 30% |
| C=Cc1cncc(F)c1NCCC(=O)Nc1cnn(CC(=O)N(C)CCOc2ccc(C)cc2)c1 [Compound 251] | > 50% |
| CN(CCOc1cc(C(F)F)on1)C(=O)Cn1cc(NC(=O)CCNc2ccnc(F)n2)cn1 [Compound 272] | < 30% |
| Cc1ccc(OCCC(=O)Nc2cnn(CC(=O)N(C)CCOc3ccc(C4(F)CC4)cc3)c2)c(F)c1 [Compound 89] | < 30% |
| Cc1ccc(OCCN(C)C(=O)Cn2cc(NC(=O)CCNc3nc(C)ncc3C(C)C)cn2)cc1 [Compound 210] | > 50% |
| COc1cnccc1NCCC(=O)Nc1cnn(CC(=O)N(C)CCOc2ccc(C)cc2)c1 [Compound 198] | < 30% |
| Cc1ccc(OCCN(C)C(=O)Cn2cc(NC(=O)CCNc3ccc(OCc4ccccc4)cn3)cn2)cc1 [Compound 165] | < 30% |
| Cc1ccc(OCCN(C)C(=O)Cn2cc(NC(=O)CCOc3cnccc3C(F)(F)F)cn2)cc1 [Compound 12] | < 30% |
| Cc1ccc(OCCN(C)C(=O)Cn2cc(NC(=O)CCNc3ncccn3)cn2)cc1 [Compound 138] | > 50% |
| CN(CCOc1ccc(C(F)(F)F)cn1)C(=O)Cn1cc(NC(=O)CCOc2ccc(Cl)cc2F)cn1 [Compound 94] | 30 to 50% |
| Cc1ccc(OCCN(C)C(=O)Cn2cc(NC(=O)C(CNc3ccc(F)nc3C)c3ccccc3)cn2)cc1 (stereo not drawn) [Compound 167] | < 30% |
| Cc1ccc(OCCN(C)C(=O)Cn2cc(NC(=O)CCOc3cncc(N)c3)cn2)cc1 [Compound 235] | < 30% |
| CC(C)c1cncc(F)c1OCCC(=O)Nc1cnn(CC(=O)N(C)CCOc2ccc(C(F)(F)F)nc2)c1 [Compound 277] | > 50% |
| COc1cccc(OCCN(C)C(=O)Cn2cc(NC(=O)CCOc3ccc(C)cc3F)cn2)c1 [Compound 74] | < 30% |
| Cc1ccc(OCCN(C)C(=O)Cn2cc(NC(=O)CCNc3ccnc(F)c3Cl)cn2)cc1 [Compound 190] | < 30% |
| Cc1ccc(OCCN(C)C(=O)Cn2cc(NC(=O)CCNc3ccncc3Cl)cn2)cc1 [Compound 182] | > 50% |
| Cc1ccc(OCCN(C)C(=O)Cn2cc(N(C)C(=O)CCOc3ccccc3F)cn2)cc1 [Compound 51] | < 30% |
| Cc1ccc(OCCN(C)C(=O)Cn2cc(NC(=O)CCNc3ncncc3C(C)C)cn2)cc1 [Compound 161] | > 50% |
| Cc1ccc(OCCC(=O)Nc2cnn(CC(=O)N(C)CCOc3cccc(OC(F)(F)F)c3)c2)c(F)c1 [Compound 69] | < 30% |

| SMILES | activation at 10 µM |
| --- | --- |
| Cc1ccc(OCCN(C)C(=O)Cn2cc(NC(=O)CCNc3ccnc(O)n3)cn2)cc1 [Compound 260, 3-((2-hydroxypyrimidin-4-yl)amino)-N-(1-(2-(methyl(2-(p-tolyloxy)ethyl)amino)-2-oxoethyl)-1H-pyrazol-4-yl)propanamide] | < 30% |
| Cc1ccc(OCCN(C)C(=O)Cn2cc(NC(=O)CCOc3ccc(F)cc3F)cn2)cc1 [Compound 49] | > 50% |
| Cc1ccc(OCCN(C)C(=O)Cn2cc(NC(=O)CCOc3cccc(NC(=O)OC(C)(C)C)n3)cn2)cc1 [Compound 102] | > 50% |
| Cc1ccc(OC[C@@H](C)N(C)C(=O)Cn2cc(NC(=O)CCNc3nccc(F)n3)cn2)cc1 [Compound 270] | 30 to 50% |
| CC(C)c1cncc(F)c1OCCC(=O)Nc1cnn(CC(=O)N(C)CCOc2ccc(OC(F)(F)F)cn2)c1 [Compound 279] | > 50% |
| Cc1ccc(OCCN(C)C(=O)Cn2cc(NC(=O)CCNc3ncccc3C#N)cn2)cc1 [Compound 141] | < 30% |
| Cc1ccc(OCCC(=O)Nc2cnn(CC(=O)N(C)CCOc3ccc(F)cc3)c2)c(F)c1 [Compound 75] | < 30% |
| Cc1ccc(OCCN(C)C(=O)Cn2cc(NC(=O)CCOc3ccnc(Br)c3)cn2)cc1 [Compound 98] | > 50% |
| Cc1ccc(OCCN(C)C(=O)Cn2cc(NC(=O)CCOc3ccc(N)cn3)cn2)cc1 [Compound 205] | > 50% |
| Cc1ccc(OCCN(C)C(=O)Cn2cc(NC(=O)CCNc3cccc(N)n3)cn2)cc1 [Compound 154] | > 50% |
| Cc1ccc(OCCN(C)C(=O)Cn2cc(NC(=O)CCNc3cnc(F)c(C)c3)cn2)cc1 [Compound 121] | > 50% |
| Cc1ccc(OCCN(C)C(=O)Cn2cc(NC(=O)CCOc3c(F)cc(C)cc3F)cn2)cc1 [Compound 116] | > 50% |
| Cc1ccc(OCCN(C)C(=O)Cn2cc(NC(=O)CCNc3cccnc3C)cn2)cc1 [Compound 174] | 30 to 50% |
| Cc1ccc(OCCN(C)C(=O)Cn2cc(NC(=O)CCNc3ccc(O)nc3)cn2)cc1 [Compound 255] | < 30% |
| Cc1ccc(OCCN(C)C(=O)Cn2cc(NC(=O)CCOc3cncnc3N)cn2)cc1 [Compound 117] | < 30% |
| Cc1ccc(OCCN(C)C(=O)Cn2cc(NC(=O)CCOc3ncc(F)cc3C)cn2)cc1 [Compound 68] | < 30% |
| Cc1ccc(OCCN(C)C(=O)Cn2cc(NC(=O)CCNc3cccc(F)n3)cn2)cc1 [Compound 144] | > 50% |
| Cc1ccc(OCCN(C)C(=O)Cn2cc(NC(=O)CCNc3cc(Cl)ccn3)cn2)cc1 [Compound 145] | < 30% |

Same assay, conditions: 18 h, read-out: Activity (IRE1-XBP1s activation, luminescence as % signal relative to thapsigargin, % Tg)

| SMILES | activation at 10 µM |
| --- | --- |
| C#CC1CCCCC1OCCC(=O)Nc1cnn(CC(=O)N(C)CCOc2ccc(C)cc2)c1 (stereo not drawn) [Compound 2, 3-((2-ethynylcyclohexyl)oxy)-N-(1-(2-(methyl(2-(p-tolyloxy)ethyl)amino)-2-oxoethyl)-1H-pyrazol-4-yl)propanamide hydrochloride] | > 50% |
| CN(CCc1ccc(Cl)cc1)C(=O)Cn1cc(NC(=O)CCOc2ccccc2)cn1 [Compound 22, N-(1-(2-((4-chlorophenethyl)(methyl)amino)-2-oxoethyl)-1H-pyrazol-4-yl)-3-phenoxypropanamide hydrochloride] | < 30% |
